One compound from patent publication US20260216054A1, “COMPOSITIONS COMPRISING EPILOBIUM FLEISCHERI EXTRACT FOR TREATING SIGNS OF AGING” (DSM IP Assets B.V., priority 2023, published 2026) can be followed below.

This experiment concerns 70% normal and 30% senescent human dermal fibroblasts. Kind of experiment: Senolytic activity study (SA-beta-galactosidase, flow cytometry). The settings on record: 1.5 μM, 72 hours. It is filed as cell-based. The protocol: Normal and senescent cell populations were obtained from normal human dermal fibroblasts. For the normal cell population, the cells were seeded in cell culture medium (Dulbecco's Modified Eagle Medium supplemented with 10% serum and 1% antibiotics) and allowed to adhere and proliferate in a humidified cell incubator maintaining 37° C. and 5% CO2. These were then passaged or collected when 90% confluent. For the senescent cell population, the normal fibroblast cells were at this stage shortly exposed to 200 μM H2O2 followed by normal cell culture medium. Several days later, the cells were treated again with H2O2 to obtain a fully senescent population. Both normal and senescent populations were mixed into a 70% normal and 30% senescent cell population and represented the treatment population. Afterward, the 70% normal and 30% senescent cell population were seeded in cell culture medium and allowed to adhere in the cell incubator. […] Afterward, senescence-associated beta-galactosidase was visualized—a well-known senescence marker—in the cells to quantify the senescence levels using flow cytometry. […] Data are normalized to the untreated control (30% senescent cells and 70% normal cells) and expressed as the mean±SD (n=4).
On the technique in general: A flow cytometer gives signals particle by particle.

In the case of `CC1(C)CCC(c2ccc(Cl)cc2)=C(CN2CCN(c3ccc(C(=O)NS(=O)(=O)c4ccc(N[C@H](CCN5CCOCC5)CSc5ccccc5)c(S(=O)(=O)C(F)(F)F)c4)cc3)CC2)C1` [Navitoclax], the “Senescent cells (%)” value (70% normal/30% senescent mix, normalized to untreated control (30%), mean, n=4) is reported as 10%. Besides, the Significant senolytic effect entry (versus CTRL) is reported as “Yes”.
